Assay results taken from PubChem BioAssay (NCI).
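Tested at 5 concentrations; 48 h exposure; 96-well plates; endpoints linearly interpolated, else capped at highest concentration. Here, GI50 denotes the concentration required for 50% inhibition of growth. TGI: concentration producing complete growth inhibition.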

Columns and labels:
Experiment in all cases: DTP human tumour cell line panel, 48 h
HOP-92 NSCLC = test system: HOP-92 NSCLC
UACC-257 melanoma = test system: UACC-257 melanoma
MDA-MB-231 breast = test system: MDA-MB-231 breast
PC-3 prostate = test system: PC-3 prostate
LOX IMVI melanoma = test system: LOX IMVI melanoma
U251 CNS = test system: U251 CNS
ACHN renal = test system: ACHN renal
UO-31 renal = test system: UO-31 renal
SF-268 CNS = test system: SF-268 CNS
MCF7 breast = test system: MCF7 breast

| SMILES | TGI (HOP-92 NSCLC) [µM] | TGI (UACC-257 melanoma) [µM] | TGI (MDA-MB-231 breast) [µM] | TGI (PC-3 prostate) [µM] | TGI (LOX IMVI melanoma) [µM] | TGI (U251 CNS) [µM] | TGI (ACHN renal) [µM] | TGI (UO-31 renal) [µM] | TGI (SF-268 CNS) [µM] | TGI (MCF7 breast) [µM] | GI50 (HOP-92 NSCLC) [µM] | GI50 (UACC-257 melanoma) [µM] | GI50 (MDA-MB-231 breast) [µM] | GI50 (PC-3 prostate) [µM] | GI50 (LOX IMVI melanoma) [µM] | GI50 (U251 CNS) [µM] | GI50 (ACHN renal) [µM] | GI50 (UO-31 renal) [µM] | GI50 (SF-268 CNS) [µM] | GI50 (MCF7 breast) [µM] |
| --- | --- | --- | --- | --- | --- | --- | --- | --- | --- | --- | --- | --- | --- | --- | --- | --- | --- | --- | --- | --- |
| NC(=O)c1c(NC=O)ncn1C1OCC(O)C(O)C1O (centres undefined) | > 100 | > 100 | > 100 | > 100 | > 100 | > 100 | > 100 | > 100 | > 100 |  |  |  |  |  |  |  |  |  |  |  |
| CC[C@H](C)C1=C(O)[N@+]2([O-])Oc3ccc(-c4c(O)c(O)c(-c5ccc(O)cc5)c(OC(C)=O)c4OC(C)=O)cc3O[C@]2([C@@H](C)CC)C(=O)N1O | 32.1 | > 50 | > 50 | > 50 | > 50 | > 50 | > 50 | > 50 | > 50 | > 50 |  |  |  |  |  |  |  |  |  |  |
| CN(C)c1cccc2c1C(=O)C=CC21CCc2ccc(N(C)C)c3c(N(C)C)ccc1c23 (centres undefined) | 41.8 | 25.1 | 31.2 | 27.4 | 31.9 |  | 26.2 | 24.1 | 33.8 | 27.3 |  |  |  |  |  |  |  |  |  |  |
| O=C(Nc1nnc(-c2c(Cl)c(Cl)c(Cl)c(Cl)c2-c2nc3cc(C(=O)c4ccccc4)ccc3[nH]2)o1)c1ccc(Cl)cc1 | > 100 | > 100 | > 100 | > 100 | > 100 | > 100 | > 100 | > 100 |  | > 100 |  |  |  |  |  |  |  |  |  |  |
| COc1nc2c(c(=O)n1C)N=C(c1ccc(Cl)cc1)CC(c1ccccc1)N2 (centres undefined) | > 100 | 67.9 | 53.7 | > 100 | 52.2 | > 100 | 54 | > 100 |  | 28.8 |  |  |  |  |  |  |  |  |  |  |
| Nc1c2c(nc3ccccc13)-c1ccccc1NCCC2 | 65.6 | 28.3 | 53.5 | > 100 | 35.5 | > 100 | > 100 | 88.3 | > 100 | > 100 |  |  |  |  |  |  |  |  |  |  |
| C=CCc1cc(C(Cc2ccccc2)NC(C)C)cc(OCc2ccccc2)c1OCc1ccccc1 (centres undefined) | 25.3 | 34.4 | 28.3 | 28.8 | 31.7 | 27.7 | 30.5 | 21.7 | 30 | 32 |  |  |  |  |  |  |  |  |  |  |
| COc1cc(C2c3cc4c(cc3[C@@H](Oc3ccc(F)cc3)C3COC(=O)[C@H]23)OCO4)cc(OC)c1O (some centres undefined) | > 100 | 22.8 |  |  | > 100 | > 100 |  | > 100 | > 100 | > 58 |  |  |  |  |  |  |  |  |  |  |
| NC(Cc1ncccn1)C(=O)O (centres undefined) | > 100 | > 100 | > 100 | > 100 | > 100 | > 100 | > 100 | > 100 | > 100 | > 100 |  |  |  |  |  |  |  |  |  |  |
| S=C(N1CCN(c2cccc(Cl)c2)CC1)N1CCN(c2cccc(Cl)c2)CC1 |  | > 100 | 58.8 | > 100 |  | > 100 | > 100 | 86.1 | > 100 | > 100 |  |  |  |  |  |  |  |  |  |  |
| O=C(NCCNc1nccc(-c2c(-c3cccc(O)c3)nc3sccn23)n1)c1ccccc1 | 33.2 | 18.5 | 31.5 | 65.7 | 17.8 | > 100 | 34.9 | 88.7 | 87 | 14.9 | 2.22 | 0.489 | 7.05 | 11.9 | 3.22 | 17.9 | 6.43 | 12.2 | 15.5 | 3.24 |
| COc1ccc2c3c([nH]c2c1)CCN(Cc1ccccc1)C3 | 25.6 | 42.5 | 66.4 |  | 38 | 53.4 | > 100 | 39.6 | > 100 | 33.8 |  |  |  |  |  |  |  |  |  |  |
| CC(C)(C)OC(=O)CN1CCN(CC(=O)N2CCN(C(=O)OCc3ccccc3)CC2)CCN(CC(=O)OC(C)(C)C)CCN(CC(=O)N2CCN(C(=O)OCc3ccccc3)CC2)CC1 | 11.4 | 5.92 | 5.01 | 12.5 | 2.93 | 9.51 | 22.3 | 25.5 | 7.34 | 14.9 |  |  |  |  |  |  |  |  |  |  |
| O=S(=O)(/N=C(\NO)Nc1ccc(Cl)cc1)c1ccccc1 | 22.4 | 26.6 | > 100 | 37.3 | 33.6 | > 100 | 36.3 | 27.5 | > 70.3 | > 100 |  |  |  |  |  |  |  |  |  |  |
| N#Cc1c(-c2ccc(Cl)cc2)c2c(N=Nc3c(O)ccc4ccccc34)[nH]nc2[nH]c1=O | 0.865 |  | 1.08 | 2.05 | 0.439 | 1.56 | 0.492 | 1.05 | 1.66 | 0.982 |  |  |  |  |  |  |  |  |  |  |
| CCn1c2ccccc2c2ccc(C3C(C(=O)OC)=C(C)NC(C)=C3C(=O)OC)cc21 |  | > 100 | > 100 |  | > 100 | > 100 | > 100 | > 100 | > 100 | > 100 |  |  |  |  |  |  |  |  |  |  |
| CC(C)(C)C1=CC(=C2C=Cc3ccccc3O2)C=C(C(C)(C)C)C1=O | > 51 | 13.2 | 11.1 | 16.2 | 12.9 | 7.51 | 19.2 | 21.9 | > 34.3 | 13.1 |  |  |  |  |  |  |  |  |  |  |
| CSc1c(CC(=O)Nc2ccc(Cl)cc2)n(Cc2ccccc2)c2ccccc12 | 42.8 | > 100 | 39.3 | 27.7 | > 100 | 25 | > 100 | > 100 | > 100 | > 100 |  |  |  |  |  |  |  |  |  |  |
| Cc1ccc2[nH]c3[nH]c(=S)[nH]c(=O)c3c2c1 | > 100 | > 100 | > 100 |  | > 100 |  | > 100 | > 100 | > 100 | > 100 |  |  |  |  |  |  |  |  |  |  |
| CCN(CC)CCCNc1[nH]ncc2c(C)c3nc4ccc(OC)cc4c3cc12 | 3.14 | 7.18 | 2.65 | 1.73 | 0.829 | 1.77 | 5.95 | 15 | 3.52 | 1.28 |  |  |  |  |  |  |  |  |  |  |
| N#C/C(N)=C(\C#N)N=CNc1ccc(N)cc1 |  | > 100 | > 100 | > 100 | > 100 | > 100 | > 100 | > 100 | > 100 | > 100 |  |  |  |  |  |  |  |  |  |  |
